Results on 2 compounds are retold here after patent US4727080A, “1-substituted derivatives of 6-fluoro-7-(pyrrol-1-yl)-1,4-dihydro-4-oxoquinoline-3-carboxylic acid, their preparation and their application as drugs” (Provesan S.A., priority 1984, dated 1988).

Converted amounts (≈) assume the structure as drawn.

The test system of data set [1] is Serratia marcescens ATTC 13880. The data set can be described thus: "In vitro" MIC, Serratia marcescens. In kind it is cell-based. The note with it: ATTC13880; Serratia marcescens ATTC 13880; dextrose agar, 37° C., 20 hours; read-out: "In vitro" MIC. The procedure:
(§1) Antimicrobial pharmacological activity (G. L. Daquet and Y. A. Chabbect, Techniques en bacteriologie (Techniques in bacteriology), vol. 3, Flammarion Medecine-Sciences, Paris, 1972, and W. B. Hugo and A. D. Rusell, Pharmaceutical Microbiology, Blackwell Scientific Publications, London (1977).
Serratia marcescens ATTC 13880
(§2) A streak culture of each of the microorganisms is formed in tubes of antibiotics agar no. 1 and incubated for 20 hours at 37° C. A culture loop is then taken and a culture is formed in a tryptone-soya broth and incubated for 20 hours at 37° C. The resulting culture is diluted to 1/4 with Ringer's physiological solution to give a standardized suspension of 10^5 ufc/ml for each organism.
(§3) Starting from a solution of 1000 μg/ml in 0.1N NaOH, each product is diluted successively in dextrose agar (melted beforehand and kept at 50° C.) to give the following concentrations: 64-32-16-8-4-2-1-0.5-0.25-0.125 μg of derivative/ml of medium.
(§4) After this, each concentration of each product is divided up into Petri dishes of 10 cm diameter at a rate of 10 ml of medium per dish and using as many dishes as there are microorganisms to be tested.
(§5) Once the medium has cooled, the dishes are treated with the inoculations at a rate of 0.4 ml of inoculation per dish. They are spread out with a Drigalski loop and the supernatant is collected. The inoculated dishes are incubated at 37° C. for 20 hours.

Data set [2] has as its system Staphylococcus aureus ATCC 5488/23. The data set can be described thus: "In vitro" MIC, Staphylococcus aureus ATCC 5488/23. In kind it is cell-based. The following applies: ATCC5488; Staphylococcus aureus ATCC 5488/23; dextrose agar, 37° C., 20 hours; read-out: "In vitro" MIC. The procedure:
as §1
Staphylococcus aureus ATCC 5488/23
as §2, §3, §4, §5

The test system of data set [3] is Citrobacter freundii ATCC 11606. The data set can be described thus: "In vitro" MIC, Citrobacter freundii. Format: cell-based. The note with it: ATCC11606; Citrobacter freundii ATCC 11606; dextrose agar, 37° C., 20 hours; read-out: "In vitro" MIC. The procedure: as §1
Citrobacter freundii ATCC 11606
as §2, §3, §4, §5

Data set [4] relates to Staphylococcus aureus ATCC 25178. Kind of data set: "In vitro" MIC, Staphylococcus aureus ATCC 25178. Format: cell-based. The following applies: ATCC25178; Staphylococcus aureus ATCC 25178; dextrose agar, 37° C., 20 hours; read-out: "In vitro" MIC. The procedure: as §1
Staphylococcus aureus ATCC 25178
as §2, §3, §4, §5

For a further data set, the system named is Shigella flexnerii. Kind of data set: "In vitro" MIC, Shigella flexnerii. In kind it is cell-based. The note with it: 20 h, read-out: "In vitro" MIC. The procedure:
as §1, §2, §3, §4, §5

The test system of data set [5] is Enterobacter aerogenes ATCC 15038. The data set can be described thus: "In vitro" MIC, Enterobacter aerogenes. Format: cell-based. The following applies: Klebsiella aerogenes, ATCC15038; Enterobacter aerogenes ATCC 15038; dextrose agar, 37° C., 20 hours; read-out: "In vitro" MIC. On the procedure:
as §1
Enterobacter aerogenes ATCC 15038
as §2, §3, §4, §5

Data set [6] deals with Bacillus subtilis ATCC 6633. Kind of data set: "In vitro" MIC, Bacillus subtilis. In kind it is cell-based. The following applies: ATCC6633; Bacillus subtilis ATCC 6633; dextrose agar, 37° C., 20 hours; read-out: "In vitro" MIC. The procedure:
as §1
Bacillus subtilis ATCC 6633
as §2, §3, §4, §5

In another data set the test system is Proteus morganii CHSP-16. Kind of data set: "In vitro" MIC, Proteus morganii. The following applies: Morganella morganii, CHSP16; Proteus morganii CHSP-16; dextrose agar, 37° C., 20 hours; read-out: "In vitro" MIC. Format: cell-based. On the procedure: as §1, §2, §3, §4, §5
Data set [7] has as its system Salmonella typhimurium AMES 100. Kind of data set: "In vitro" MIC, Salmonella typhimurium AMES 100. Format: cell-based. The note with it: Salmonella enterica; Salmonella typhimurium AMES 100; dextrose agar, 37° C., 20 hours; read-out: "In vitro" MIC. The procedure:
as §1
Salmonella typhimurium AMES 100
as §2, §3, §4, §5

The subject of data set [8] is Streptococcus faecalis ATCC 10541. Kind of data set: "In vitro" MIC, Streptococcus faecalis. Format: cell-based. The note with it: Enterococcus faecalis, ATCC10541; Streptococcus faecalis ATCC 10541; dextrose agar, 37° C., 20 hours; read-out: "In vitro" MIC. The procedure:
as §1
Streptococcus faecalis ATCC 10541
as §2, §3, §4, §5

In data set [9] the test system is Pseudomonas aeruginosa 25115. Kind of data set: "In vitro" MIC, Pseudomonas aeruginosa 25115. Format: cell-based. The following applies: Pseudomonas aeruginosa 25115; dextrose agar, 37° C., 20 hours; read-out: "In vitro" MIC. The procedure: as §1
Pseudomonas aeruginosa 25115
as §2, §3, §4, §5

Data set [10] relates to Micrococcus flavus ATCC 10240. The data set can be described thus: "In vitro" MIC, Micrococcus flavus. In kind it is cell-based. The following applies: ATCC10240; Micrococcus flavus ATCC 10240; dextrose agar, 37° C., 20 hours; read-out: "In vitro" MIC. The procedure: as §1
Micrococcus flavus ATTC 10240
as §2, §3, §4, §5

The test system of the next data set is Gram-positive cocci. The data set can be described thus: "In vitro" antimicrobial activity compared with nalidixic acid, Gram-positive cocci. In kind it is cell-based. The procedure:
as §1, §2, §3, §4, §5

Data set [11] concerns Enterobacter cloacae CHSP-20. Kind of data set: "In vitro" MIC, Enterobacter cloacae. In kind it is cell-based. The note with it: CHSP20; Enterobacter cloacae CHSP-20; dextrose agar, 37° C., 20 hours; read-out: "In vitro" MIC. The procedure: as §1
Enterobacter cloacae CHSP-20
as §2, §3, §4, §5

Data set [12] concerns Escherichia coli ATCC 10536. Kind of data set: "In vitro" MIC, Escherichia coli ATCC 10536. Format: cell-based. The following applies: ATCC10536; Escherichia coli ATCC 10536; dextrose agar, 37° C., 20 hours; read-out: "In vitro" MIC. The procedure: as §1
Escherichia coli ATCC 10536
as §2, §3, §4, §5

Data set [13] has as its system Pseudomonas aeruginosa ADSA 47. The data set can be described thus: "In vitro" MIC, Pseudomonas aeruginosa ADSA 47. Format: cell-based. The note with it: ADSA47; Pseudomonas aeruginosa ADSA 47; dextrose agar, 37° C., 20 hours; read-out: "In vitro" MIC. On the procedure:
as §1
Pseudomonas aeruginosa ADSA 47
as §2, §3, §4, §5

Data set [14] concerns Salmonella typhimurium AMES 98. The data set can be described thus: "In vitro" MIC, Salmonella typhimurium AMES 98. The following applies: Salmonella enterica; Salmonella typhimurium AMES 98; dextrose agar, 37° C., 20 hours; read-out: "In vitro" MIC. Format: cell-based. On the procedure: as §1
Salmonella typhimurium AMES 98
as §2, §3, §4, §5

Another data set can be described thus: Acute toxicity to mice. The following applies: mouse, in vivo, ip, suspension in 5% gum arabic, mortality over 7 days. On the procedure:
The experimental animals used to determine this toxicity were albino mice of the C.F.L.P. strain and of both sexes, weighing between 19 and 25 grams. After an 18-hour fasting period with water "ad libitum", the derivatives forming the subject of the present invention are administered intraperitoneally as a suspension in 5% gum arabic. The volume of suspension administered was 0.4 ml/20 grams (20 ml/kg) in all cases, the concentration of the suspension being changed according to the dose administered.
One hour after administration of the derivatives, the animals are given a standard Panlab rat-mouse food. The mortality was observed over a period of 7 days. Differences in mortality between the sexes were not observed with any of the products.

Another data set has as its system Escherichia coli R-1513. The data set can be described thus: "In vitro" MIC, Escherichia coli R-1513. In kind it is cell-based. The note with it: R1513; Escherichia coli R-1513; dextrose agar, 37° C., 20 hours; read-out: "In vitro" MIC. On the procedure:
as §1, §2, §3, §4, §5

The test system of data set [15] is Proteus mirabilis ATCC 4675. Kind of data set: "In vitro" MIC, Proteus mirabilis. The following applies: ATCC4675; Proteus mirabilis ATCC 4675; dextrose agar, 37° C., 20 hours; read-out: "In vitro" MIC. Format: cell-based. The procedure:
as §1
Proteus mirabilis ATCC 4675
as §2, §3, §4, §5

In data set [16] the test system is Klebsiella pneumoniae ATCC 10031. Kind of data set: "In vitro" MIC, Klebsiella pneumoniae. Format: cell-based. The note with it: ATCC10031; Klebsiella pneumoniae ATCC 10031; dextrose agar, 37° C., 20 hours; read-out: "In vitro" MIC. On the procedure:
as §1
Klebsiella pneumoniae ATCC 10031
as §2, §3, §4, §5

The test system of another data set is Sarcina lutea ATCC 9341. Kind of data set: "In vitro" MIC, Sarcina lutea. Format: cell-based. The note with it: Micrococcus luteus, ATCC9341; Sarcina lutea ATCC 9341; dextrose agar, 37° C., 20 hours; read-out: "In vitro" MIC. The procedure: as §1, §2, §3, §4, §5
For data set [17], the system named is Enterobacteriaceae (Pseudomonas aeruginosa). The data set can be described thus: "In vitro" antimicrobial activity compared with nalidixic acid, Enterobacteriaceae (Pseudomonas aeruginosa). In kind it is cell-based. The procedure:
as §1, §2, §3, §4, §5

For `O=C(O)c1cn(CCF)c2cc(-n3cccc3)c(F)cc2c1=O` [Example 6, 6-fluoro-7-(pyrrol-1-yl)-1-fluoroethyl-4-oxo-1,4-dihydroquinoline-3-carboxylate acid], the minimum inhibitory concentration (MIC) in [1] turned out to be 1 µg/mL (≈ 3.14 µM); in [2], 0.062 µg/mL (≈ 0.195 µM); in data set [3] it was 1 µg/mL (≈ 3.14 µM); in data set [4], 0.062 µg/mL (≈ 0.195 µM); in the data set with Shigella flexnerii, 1 µg/mL (≈ 3.14 µM); in data set [5] it was 1 µg/mL (≈ 3.14 µM). Also, the minimum inhibitory concentration (MIC) in data set [6] is at most 0.031 µg/mL; with Proteus morganii CHSP-16, 0.5 µg/mL (≈ 1.57 µM); in data set [7] it was 0.25 µg/mL (≈ 0.785 µM); in data set [8] it was 0.5 µg/mL (≈ 1.57 µM); in data set [9] it was 4 µg/mL (≈ 12.6 µM); in data set [10], 1 µg/mL (≈ 3.14 µM). Besides, the minimum inhibitory concentration (MIC) was 0.5 µg/mL (≈ 1.57 µM) in data set [11]; at most 0.031 µg/mL in [12]; 16 µg/mL (≈ 50.3 µM) in data set [13]; at most 0.031 µg/mL in data set [14]; 0.5 µg/mL (≈ 1.57 µM) in the data set with Escherichia coli R-1513; 1 µg/mL (≈ 3.14 µM) in data set [15]. The minimal inhibitory concentration (MIC) came to 0.062 µg/mL (≈ 0.195 µM) in data set [16] and 2 µg/mL (≈ 6.28 µM) in the data set on Sarcina lutea ATCC 9341. Moreover, the “"in vitro" activity compared with nalidixic acid” value (with Gram-positive cocci; in [17]) was “greater "in vitro" activity than nalidixic acid” each time. For the same compound, in “Acute toxicity to mice”, the LD50 at 168 h is above 1600 mg/kg.
In the case of `CNn1cc(C(=O)O)c(=O)c2cc(F)c(-n3cccc3)cc21` [Example 7, 6-fluoro-7-(pyrrol-1-yl)-1-methylamino-4-oxo-1,4-dihydroquinoline-3-carboxylic acid], the MIC in data set [1] turned out to be 1 µg/mL (≈ 3.32 µM); in data set [2] it was 0.25 µg/mL (≈ 0.83 µM); in data set [3], 1 µg/mL (≈ 3.32 µM); in [4], 0.25 µg/mL (≈ 0.83 µM); in the data set with Shigella flexnerii, 1 µg/mL (≈ 3.32 µM); in [5], 1 µg/mL (≈ 3.32 µM). Also, the minimum inhibitory concentration (MIC) in data set [6] was at most 0.062 µg/mL; with Proteus morganii CHSP-16 it was 1 µg/mL (≈ 3.32 µM); in data set [7], 0.25 µg/mL (≈ 0.83 µM); in data set [8], 4 µg/mL (≈ 13.3 µM); in data set [9] it was 8 µg/mL (≈ 26.6 µM); in data set [10], 4 µg/mL (≈ 13.3 µM). For the same compound, the minimal inhibitory concentration (MIC) in data set [11] is 1 µg/mL (≈ 3.32 µM); in [12], at most 0.062 µg/mL; in [13], 16 µg/mL (≈ 53.1 µM); in data set [14] it was 0.125 µg/mL (≈ 0.415 µM); with Escherichia coli R-1513, 0.5 µg/mL (≈ 1.66 µM); in data set [15], 2 µg/mL (≈ 6.64 µM). Further, the MIC in [16] is 0.125 µg/mL (≈ 0.415 µM); with Sarcina lutea ATCC 9341, 4 µg/mL (≈ 13.3 µM). For the same compound, the “"in vitro" activity compared with nalidixic acid” value (with Gram-positive cocci; in [17]) was “greater "in vitro" activity than nalidixic acid” in each case. Besides, the median lethal dose (LD50) at 168 h in the data set “Acute toxicity to mice” is above 1600 mg/kg.
